Compound `O=C(Nc1ccc(F)cc1F)Oc1ccccc1` has a melting point of 82 to 84 °C.
For `O=C(c1ccccc1)c1cc([N+](=O)[O-])ccc1N(Cc1ccccc1)C(=O)CBr`, the melting point was 149 °C.
Compound `N#CCOc1cc(Cl)c2c(=O)c(-c3ccccc3Cl)coc2c1` has a melting point of 174 to 175 °C.
With `CC(C)(CC/C=C\[C@@H]1C[C@@H](NS(=O)(=O)c2ccc(Cl)cc2)CN1S(=O)(=O)c1ccc(Cl)cc1)C(=O)O` the melting point was 159 to 160 °C.
Work on `CC(=O)Nc1cc2c(cc1[N+](=O)[O-])C(CC(C)C)C(=O)N2` (stereo not given) yielded a melting point of 192 to 197 °C.
With `Cc1nc(-c2ccccc2)nc(NCC(=O)N(C)c2ccccc2)c1Br` the melting point was 160 to 162 °C.
Compound `CN1c2cc(Cl)ccc2-c2nc3ccccc3c3cc(OS(=O)(=O)C(F)(F)F)cc1c23` has a melting point of 239 to 241 °C.
Work on `c1ccc2c(c1)c1nncn1c1c(-c3noc(C4CC4)n3)ncn21` yielded a melting point of 308 to 314 °C.
`NC(=O)CC[C@H](Nc1ccc(O)cc1)C(=O)O` showed a melting point of 211 to 212 °C.
With `O=C(Nc1cc(-c2ccnc3c(C(=O)c4cccs4)cnn23)ccc1F)c1c(F)cccc1F` the melting point was 198 to 200 °C.
Work on `CCOC(=O)C1(C(=O)N(Cc2ccccc2)Cc2ccccc2)CC(=O)N(C(C)c2ccccc2)C1` (stereo not given) yielded a melting point of 135 to 137 °C.
`O=C(Nc1ccc(Oc2ccnc(NC3CCCCC3)n2)c2ccccc12)c1cc(F)cc(N2CCOCC2)c1` gave a melting point of 135 to 136 °C.
`Cn1ncc(N2CCCC2)c(-c2ccccc2C=NO)c1=O` showed a melting point of 239 °C.
`Cn1cc(C=CC(=O)NC2CC2)c([N+](=O)[O-])n1` gave a melting point of 183 to 185 °C.
`CC(C)(C(=O)OCC(=O)c1ccccc1)n1c(=O)[nH]c2cc(F)c(F)cc2c1=O` gave a melting point of 174 to 176 °C.
`O=C(NCc1cccnc1)c1ccc2n1Cc1ccccc1N(C(=O)c1ccc(-c3ccccc3CN3CCCCC3)cc1)C2` gave a melting point of 199 to 202 °C.
Work on `NC(=O)c1ncn2c1[C@@H]1CCN1C(=O)c1c-2cccc1C(F)(F)F` yielded a melting point greater than 300 °C.
`COc1cc(Nc2nccc(-c3nc4ccccc4s3)n2)cc(OC)c1OC` gave a melting point of 182 to 183 °C.
`COC(=O)c1cc(OCc2ccccc2)cc(C(=O)OC)c1` showed a melting point of 94 to 95 °C.
`O=C(CCc1cnoc1-c1ccc(Cl)cc1)Nc1cccnc1` gave a melting point of 197 to 198 °C.
`CCCCCCCCCCCCOc1cc(O)c(C(=O)c2ccccc2)c(OCCCCCCCCCCCC)c1` gave a melting point of 37 to 38 °C.
Work on `COc1ccc(N(C(=O)CN2C(=O)C(Cc3n[nH]c4ccccc34)(OC)C(=O)N(c3cccnc3)c3ccccc32)C(C)C)cc1` (stereo not given) yielded a melting point of 207 to 209 °C.
Compound `CCOC(=O)C1=C2CCCN2C(C)=C(C(=O)OC)C1c1cccc([N+](=O)[O-])c1` (stereo not given) has a melting point of 120 °C.
With `CCOC(=O)c1cc(=O)c(O)c(-c2ccccc2)o1` the melting point was 155 to 157 °C.
Compound `CCc1[nH]nc2c1C(=O)c1c(NC(=O)NN3CCOCC3)cccc1-2` has a melting point of 253 to 254 °C.
For `CC(C)(C)N(Cc1ccccc1)CC(O)c1ccc(OCc2ccccc2)c2[nH]c(CO)cc12` (stereo not given), the melting point was 136 °C.
With `O=c1ccn(-c2cccc(S(=O)(=O)c3nc4ccccc4[nH]3)c2)nc1-c1ccnn1-c1ccccc1` the melting point was 160 to 161 °C.
Compound `Cc1cc(Cc2cc(C(C)(C)C)cc(-n3nc4ccccc4n3)c2O)c(O)c(C(C)(C)C)c1` has a melting point of 175 °C.
In the case of `CCOc1ccc(-c2ccc3c(c2)C=C(C(=O)OC)CCN3C=O)cc1F`, the melting point is reported as 126 to 128 °C.
For `COC(=O)Nc1nc2cc(S(=O)CC3(C)CC3(Cl)Cl)ccc2[nH]1` (stereo not given), the melting point was 231 to 233 °C.
In the case of `C=CC1(F)CN(C2CCCC2)c2nc(Nc3ccc(C(=O)NC4CCCNC4)cc3OC)ncc2N(C)C1=O` (stereo not given), the melting point is reported as 169 to 172 °C.
Work on `Nc1sc2c(c1C(=O)c1ccc(Cl)cc1)CCN(CCc1ccc([N+](=O)[O-])cc1)C2` yielded a melting point of 150 to 152 °C.
With `ClCc1nc2nc(Cl)c(Cl)nc2s1` the melting point was 126 to 128 °C.
`COC(=O)COc1cccc(CNC(=O)C2Cc3ccccc3N2S(=O)(=O)c2ccc(-c3cccc(C(F)(F)F)c3)cc2)c1` (stereo not given) gave a melting point of 50 °C.
`CC(CC=Cc1ccccc1)C1CC=C2C3=C(CCC21C)C1(C)CCC(O)C(C)(C)C1CC3` (stereo not given) showed a melting point of 127 °C.
With `O=S(=O)(Nc1cccc(OCc2ccc3ccccc3n2)c1)c1ccc(Cl)cc1` the melting point was 157 to 159 °C.
In the case of `O=C(c1ccnc(Cl)c1)N1CC(c2ccc(F)cc2)C2(CCN(Cc3ccccc3)CC2)C1` (stereo not given), the melting point is reported as 70 to 72 °C.
Work on `OCCCc1ncnn1C(c1ccccc1)(c1ccccc1)c1ccccc1` yielded a melting point of 150 to 152 °C.
In the case of `Cc1c(C)c(N2C(=O)c3cc(Cl)c(Cl)cc3C2=O)c(C)c2c1OC(C)(C)C2c1ccccc1` (stereo not given), the melting point is reported as 178 to 181 °C.
`CNc1cc(OCC(O)CN2C(=O)CCC2=O)ccc1[N+](=O)[O-]` (stereo not given) showed a melting point of 152 °C.
In the case of `CN1CCC(c2cc3c(N(C)C)cccc3c(=O)[nH]2)CC1`, the melting point is reported as 216 to 218 °C.
Work on `CC(C)(O)c1cc(Br)ccc1NC(=O)CCl` yielded a melting point of 133 to 134 °C.
`COc1ccc2c(c1)CCC1C2CCC2(C)C(NC=O)CCC12` (stereo not given) gave a melting point of 252 to 253 °C.
In the case of `CCN(CC)CCNc1cccc2c1C(=O)c1c(NCCN(CC)CC)cccc1C2=O`, the melting point is reported as 104 to 106 °C.
`CC(C)(CC(=O)O)C(Br)CC(Cl)(Cl)Cl` (stereo not given) showed a melting point of 123 to 124 °C.
`CS(=O)(=O)c1ccc(-c2cnn(-c3ccc(F)cc3)c(=O)c2COc2ccccc2)cc1` gave a melting point of 42 to 75 °C.
`O=C1Cc2cc(C(=O)N3CCN(CCC(=O)c4ccccc4)CC3)ccc2N1` showed a melting point of 208 to 210 °C.
With `CC(C(=O)C(O)C1OC(n2cc(F)c(=O)[nH]c2=O)C(O)C1O)c1ccccc1` (mixture of isomers) the melting point was 133 to 134 °C.
`CCOC(=O)CCc1c(C)c(NC(=O)CC(C)(C)C)c(C)c2c1OCC2c1ccc(C(C)C)cc1` (stereo not given) showed a melting point of 150 to 151 °C.
In the case of `CC(C)(CCCCCCCCCCC(C)(C)C(O)C(=O)O)C(O)C(=O)O` (stereo not given), the melting point is reported as 87 to 100 °C.
Compound `C=CCN1C(=O)COc2cc(F)c(-n3c(=O)cc(CC)[nH]c3=O)cc21` has a melting point of 197 to 200 °C.
`CN(C)CCCOc1ccc2c(=O)c3ccc(OCCCN(C)C)cc3oc2c1` showed a melting point of 69 to 70 °C.
Compound `Cn1c(=O)c(-c2c(Cl)cccc2Cl)cc2cnc(Nc3cccc(CO)c3)nc21` has a melting point of 215 to 217 °C.
Work on `CCCC(=O)Nc1cnc2cc(F)ccc2c1O` yielded a melting point of 306 to 308 °C.
`O=c1[nH]c2ccncc2c2nc(-c3ccco3)nn12` showed a melting point of 312 to 313 °C.
In the case of `O=c1oc(-c2ccc3c(c2)OCCO3)cc(O)c1SCc1ccccc1`, the melting point is reported as 192 to 193 °C.
`CN(C)CCNC1=C(Br)C(=O)c2sc(C(=O)N3CCN(C(=O)C4CCCO4)CC3)nc2C1=O` (stereo not given) showed a melting point of 161 to 162 °C.
`Cc1cc(-c2cc(O)c(SCCc3ccccc3)c(=O)o2)ccc1OCc1ccccn1` showed a melting point of 75 to 77 °C.
For `CC(C)NC(=O)NNC=NC(=O)c1nc(F)c(N)nc1N`, the melting point was 221 °C.
Compound `COC(=O)c1ccc(=O)n(CCN(C)C(=O)c2cccnc2)c1` has a melting point of 120 to 122 °C.
Compound `NC(=S)Nc1cc[nH]n1` has a melting point of 130 to 132 °C.
With `COC(=O)C1(C)Oc2ccc(Cl)cc2C(C)(C)O1` (stereo not given) the melting point was 89 °C.
`C=CCNc1nc(NCc2ccccc2)nc2ccc([N+](=O)[O-])cc12` gave a melting point of 216 to 217 °C.
For `COCC(C1CC1)n1cc(Cl)nc(Nc2cc(C)c(OC(F)F)nc2C)c1=O` (stereo not given), the melting point was 103 to 104 °C.
Work on `CCCCCC(C)C(C)c1cc(O)c2c3c(c(=O)oc2c1)SCCC3` (stereo not given) yielded a melting point of 131 to 133 °C.
`CC(C)c1cccc(C(C)C)c1NC(=O)NCC1(Nc2ccc(I)cc2)CCCC1` showed a melting point of 176 °C.
In the case of `CCCCCCCCc1cnc(-c2ccc(OCC(C)OCCC)cc2)nc1` (stereo not given), the melting point is reported as 37.4 °C.
`Cc1nc2nc(/C=C3/C(=O)N4C(C(=O)O)=CS[C@H]34)nn2c2c1CCCC2` gave a melting point of 250 °C.
With `CCOC(=O)C1=C(O)c2ccc3ccccc3c2S(=O)(=O)N1C` the melting point was 163 to 165 °C.
`CC(=O)NNc1ccnc2c(NC(=O)c3c(Cl)cccc3Cl)cc(C)cc12` showed a melting point of 263 to 266 °C.
Compound `O=C(c1ccc(Cl)cc1)c1ccc([N+](=O)[O-])cc1` has a melting point of 97 to 98 °C.
`Cn1cc(C(=S)NCc2ccc(Cl)cc2)c(=O)c2cc(I)ccc21` gave a melting point of 153 to 155 °C.
`COC(=O)c1ccc(OCCNC(=O)C2Cc3ccccc3N2S(=O)(=O)c2ccc(-c3ccc(F)cc3)cc2)c(Cl)c1` (stereo not given) gave a melting point of 84 to 90 °C.
Work on `CCOC(=O)Cn1c(=O)c(=O)[nH]c2ccc3ccc(N)cc3c21` yielded a melting point greater than 250 °C.
Work on `CCCCCCC(=O)c1ccc2occc2c1` yielded a melting point of 64 to 67 °C.
In the case of `COc1cc2c(cc1C(F)(F)F)N(C(=O)Nc1ccc(C)c(-c3cnccc3C)c1)CC2`, the melting point is reported as 138 to 140 °C.
`COc1cc2c(c(Cl)c1Cl)SC(C1CCCCC1)C2O` (stereo not given) gave a melting point of 166 to 167 °C.
Work on `Cc1cc(Cl)n2nc(S(=O)(=O)Nc3c(Cl)cccc3Cl)nc2c1` yielded a melting point of 257 to 258 °C.
Compound `Cc1nnc2n1-c1ccc(Br)cc1C(c1ccccc1F)=NC2NC(=O)OCc1ccccc1` (stereo not given) has a melting point of 160 to 170 °C.
For `CC(=O)NCC(=O)NS(=O)(=O)c1ccc(-c2c(-c3ccccc3)noc2C)cc1`, the melting point was 218 to 219 °C.
Compound `CS(=O)(=O)C1CCCC1Br` (stereo not given) has a melting point of 50 to 52 °C.
`COc1ccc(C(O)CCN2CC=C(c3ccc(Cl)cc3)CC2)cc1` (stereo not given) showed a melting point of 116 to 118 °C.
`C=C1CCC2C3CCC4CC(O)CCC4(C)C3C(N)CC12C` (stereo not given) gave a melting point of 144 to 149 °C.
In the case of `CNC(=O)c1cccc(NC(=O)CCc2ccccc2C)c1`, the melting point is reported as 131 °C.
With `CCCN1CCCC(c2cccc(O)c2)C1=O` (stereo not given) the melting point was 61 to 63 °C.
Compound `Cc1nn(C)c(C)c1S(=O)(=O)N1CCC2(CC1)CSC1=C(O2)c2ccccc2C(=O)C1=O` has a melting point of 273 to 275 °C.
With `Cc1cn(C)c(CO)n1` the melting point was 125 to 126 °C.
With `CCOC(=O)Cn1c(N)nc(-c2ccccc2)c1-c1ccccc1` the melting point was 173 to 175 °C.
In the case of `CNc1ccc(-c2ccnc(-c3cn(C)c(=O)n3-c3ccc(C(C)(C)C#N)cc3)c2)cn1`, the melting point is reported as 191 °C.
`CCN(CC)CCN1C(=O)c2cc(N)cc3cc([N+](=O)[O-])cc(c23)C1=O` gave a melting point of 174 °C.
For `O=C1CN(S(=O)(=O)CC(Cc2ccccc2)C(=O)O)CCN1` (stereo not given), the melting point was 168 to 171 °C.
In the case of `CCCCC(N=O)C(C)(C)Cl` (stereo not given), the melting point is reported as 84 to 85 °C.
Work on `CC(C)OC(=O)Cn1c(=O)n(C)c(=O)n(-c2cc(N3C(=O)C4CS(=O)CCN4C3=O)c(F)cc2Cl)c1=O` (stereo not given) yielded a melting point of 175 to 180 °C.
`COc1ccc(OC(=O)CN2CCN(Cc3cc(OC)c(OC)c(OC)c3)CC2)cc1` gave a melting point of 94 to 97 °C.
In the case of `COc1cc2c(cc1O)CCN(C(=O)c1ccccc1OC)C2`, the melting point is reported as 176 to 177 °C.

Source: a melting point compilation (Tetko et al.; mined from patent text by program, amines drawn as free bases though some values may be those of a salt)
